Results reported in US9290535B2, “Uridine-based gadolinium complex and MRI contrast agent including the same” (Korea University Researchand Business Foundation, priority 2011, dated 2016).
Several values for one entry are separate records, joined by “and”; a condition that tells them apart may be missing. Equal values may be shown once.

Assays:
[1] = Stability against transmetallation by Zn2+ (time evolution of proton relaxation rate); type: physicochemical; settings: for Relaxivity retained after transmetallation: 2.5 mM complex with 2.5 mM ZnCl2 in PBS, after 70 h; for y0 of fit y0+A×exp(−t/C1) of proton relaxation rate during transmetallation: Zn(II) ions, PBS, 20 MHz (0.47 T), 36° C., steady state in about 70 h
Procedure: The stability of the gadolinium complex against various biologically active metal ions is very important in in vivo applications. Among them, only Zn^2+ can displace significant amounts of the Gd^3+ ion as concentration of Zn^2+ in blood is relatively high (55-125 μM/L). The stability of the complexes LGd1-4 against transmetallation by Zn^2+ was studied employing the method of others.
The time evolution of the ^1H longitudinal relaxivity (R1) of a 2.5 mM gadolinium complex with 2.5 mM ZnCl2 in PBS solution was measured. Stability of the amphiphilic complex LGd2 of the present invention was greater than that of the non-aggregated complex LGd1 (FIG. 13). After 70 h, the relaxivities were retained 30, 50, 21, and 12% for LGd1-4, respectively.

[2] = Relaxivity measurements (r1, r2) in PBS solution; type: physicochemical; settings: for Relaxivity r1: PBS solution, 36° C.
Procedure: The relaxation efficiency of the newly synthesized amphiphilic MRI contrast agents according to the present invention was determined by measuring longitudinal relaxivity (r1) and transverse relaxivity (r2) at 20 MHZ (0.47 T) and 60 MHz (1.41 T) in phosphate buffered saline (PBS) solution at 36° C.

[3] = biological target: T1, human serum albumin (HSA) (Homo sapiens, UniProt P02768); experiment: Interaction with human serum albumin (relaxivity with HSA, binding constant); settings: 36° C.; for Relaxivity r1^a (with HSA): PBS solution with 0.65 mM HSA; for Effective interaction with HSA (R1/R1^0): 50 μM complex, HSA below 1.0 mM
T1 construct: purchased Sigma (Bornem, Belgium) A3782
From the text: It is well known that non-covalent interaction of the contrast agent with human serum albumin (HSA) increases its circulation time in blood and slows down tubling rate, leading to greater contrast enhancement for blood vessel imaging. In this example, effective interaction between the newly synthesized contrast agents (CAs) and human serum albumin (HSA) were investigated.
Human serum albumin (HSA; Product No. A3782) was purchased from Sigma (Bornem, Belgium) and was used without further purification. HSA binding experiment was performed with 50 μM of the complexes LGd1-5 in PBS solution depending on the concentration of HSA from 0 to 4 mM at 20 MHz and 36° C.
The increment of R1/R1^0 with increasing aliphatic chain length is: LGd2>LGd3>LGd4>LGd5.
Furthermore, to know the non-covalent binding strength between HSA and the complex, a binding constant (Ka) of (3.34±0.28)×10^3 M^−1 for the complex LGd3 was determined using the theoretical equation reported in the reference (D. T. Schuhle, J. Schatz, S. Laurent, L. V. Elst, R. N. Muller, M. C. A. Stuart, J. A. Peters, Chem. Eur. J. 2009, 15, 3290). The relaxivity for the non-aggregate form of LGd3 (r1^f) was measured to be 18.5 mM^−1s^−1 (below CMC=50 μM; FIG. 10), while for adduct LGd3.HSA (r1^c), 41.0 mM^−1s^−1 at 36° C. and 20 MHz (0.47 T) in PBS solution. […] As a result, the complex LGd3 of the present invention could be retained in vivo for a longer time.

[4] = pH dependence of water 1H relaxivity; type: physicochemical
Procedure: The relaxivities of the non-aggregated complex LGd1 and the most aggregated complex LGd3 (FIG. 7, average diameter […]) were investigated at various pH values (3.5-11) at 60 MHz (1.41 T) and 36° C.
The pH dependence of water ^1H-NMR relaxivity r1 was obtained at 60 MHz and 36° C. The complexes LGd1 and LGd3 were dissolved in previously prepared stock solutions (StockOptions pH Screen, Hampton Research, USA) at pH 3.5-11.

[5] = Dynamic light scattering (DLS) of micelles; type: physicochemical; settings: for DLS PDI of micelles / DLS average size of micelles: FIGS. 6 to 9; for DLS average size of micelles: pH 7.4
[6] = Critical micelle concentration from 1/T1 versus concentration; type: physicochemical; settings: FIG. 10
Procedure: Longitudinal and transverse relaxivities, r1 and r2, were measured at 20 MHz (0.47 T) and 60 MHz (1.41 T) at 36° C. on NMR (mq20 and mq60, Bruker, Germany) and animal MRI (Biospec 47/40, Bruker, Germany) systems. T1 and T2 relaxation times were measured with inversion recovery and spin-echo pulse sequences, respectively. The critical micelle concentration (cmc) of the complex LGd3 was determined by measuring the proton relaxation rate 1/T1 as a function of complex LGd3 concentration.

[7] = Contrast-enhanced dynamic MRI in mice (CNR in liver and blood); type: in vivo, Balb/C mice
Procedure: The whole-body pharmacokinetics of T1 contrast agents can be measured by dynamic 2D or 3D MR imaging.
5-Week-old male Balb/C mice (n=3; OrientBio, Korea) were used for contrast-enhanced dynamic MRI. MRI was performed by using a 4.7 T MRI system (BioSpec 47/40; Bruker, Germany) with a quadrature birdcage RF coil (35 mm inner diameter) for signal transmission and reception.
Bolus of the contrast agents (0.1 mmol Gd/kg) was injected via tail vein. During MRI acquisition, the animals were anesthetized using 1-1.25% of inhalational isoflurane with O2:N2O (3:7) mixture.
To quantitatively measure signal intensity in region-of-interests (ROIs) as contrast-noise ratio (CNR), a reference of water sample (1 g/l CuSO4 in 8:2 of D2O:H2O) in a cylindrical tube (5 mm diameter) was used.
Dynamic 2D T1-weighted images were acquired using a spin-echo (SE) pulse sequence with the following parameters: TE/TR=10/400 ms, number of average=4, matrix size=256×256, slice thickness=1 mm, field of view=30×30 mm^2 (in axial slice) or 50×30 mm^2 (in coronal slice), and scan time=6 min 50 s).
Dynamic 3D T1-weighted images were acquired using a fast low angle shot gradient echo (FLASH) pulse sequence with parameters of TE/TR=2.4/7.5 ms, number of average=4, flip angle=30°, field of view=30×30×20 mm^3, matrix size=256×256×128, and scan time=12 min 17 s.

[8] = clinically used commercial T1 contrast agents, comparison values; cited from earlier work
[9] = clinical liver-specific contrast agents; cited from earlier work

T1 sequence (P02768 25-609): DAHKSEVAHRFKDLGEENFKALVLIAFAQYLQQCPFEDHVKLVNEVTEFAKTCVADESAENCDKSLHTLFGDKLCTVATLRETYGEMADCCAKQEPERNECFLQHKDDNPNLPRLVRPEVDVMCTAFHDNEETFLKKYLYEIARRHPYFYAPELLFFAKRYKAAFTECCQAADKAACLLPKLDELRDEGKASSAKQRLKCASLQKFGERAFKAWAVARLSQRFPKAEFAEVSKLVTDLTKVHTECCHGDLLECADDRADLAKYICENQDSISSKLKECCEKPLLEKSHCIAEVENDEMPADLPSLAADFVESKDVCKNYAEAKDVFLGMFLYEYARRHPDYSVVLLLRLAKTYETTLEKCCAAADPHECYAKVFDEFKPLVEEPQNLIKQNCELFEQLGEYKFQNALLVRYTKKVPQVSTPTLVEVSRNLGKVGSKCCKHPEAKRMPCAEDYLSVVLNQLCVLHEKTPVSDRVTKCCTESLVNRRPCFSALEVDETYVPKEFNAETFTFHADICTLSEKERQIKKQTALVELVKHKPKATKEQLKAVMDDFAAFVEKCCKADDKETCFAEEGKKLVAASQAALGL

O=C([O-])CN(CCN(CCN(CC(=O)[O-])CC(=O)[O-])C[C@H]1O[C@@H](n2ccc(=O)[nH]c2=O)[C@H](O)[C@@H]1O)CC(=O)[O-].[Gd+3] [LGd1]
Relaxivity retained after transmetallation [1]: 30% | y0 of fit y0+A×exp(−t/C1) of proton relaxation rate during transmetallation [1]: 0.30 | Relaxivity r1 ([2]; 20 MHz (0.47 T)): 5.10 mM⁻¹ s⁻¹ | Relaxivity r1 ([2]; 60 MHz (1.41 T)): 4.17 mM⁻¹ s⁻¹ | Relaxivity r1^a (with HSA) ([3]; 20 MHz (0.47 T)): 5.62 mM⁻¹ s⁻¹ | Relaxivity over the given pH range ([4]; pH 3.5-11, 60 MHz (1.41 T), 36° C.): 5.0±0.1 mM^−1s^−1 and 5.0±0.6 mM^−1s^−1 | Decrease of relaxivity at alkaline pH ([4]; pH 11, 60 MHz, 36° C.): about 10%

CCCCCCCC(=O)O[C@@H]1[C@H](OC(=O)CCCCCCC)[C@@H](CN(CCN(CC(=O)[O-])CC(=O)[O-])CCN(CC(=O)[O-])CC(=O)[O-])O[C@H]1n1ccc(=O)[nH]c1=O.[Gd+3] [LGd2]
Relaxivity retained after transmetallation [1]: 50% | y0 of fit y0+A×exp(−t/C1) of proton relaxation rate during transmetallation [1]: 0.50 | Relaxivity r1 ([2]; 20 MHz (0.47 T)): 14.70 mM⁻¹ s⁻¹ | Relaxivity r1 ([2]; 60 MHz (1.41 T)): 12.40 mM⁻¹ s⁻¹ | Effective interaction with HSA (R1/R1^0) ([3]; 20 MHz): high | Relaxivity r1^a (with HSA) ([3]; 20 MHz (0.47 T)): 31.90 mM⁻¹ s⁻¹ | DLS PDI of micelles [5]: 0.986 | DLS average size of micelles [5]: 6.78 nm

CCCCCCCCCC(=O)O[C@@H]1[C@H](OC(=O)CCCCCCCCC)[C@@H](CN(CCN(CC(=O)[O-])CC(=O)[O-])CCN(CC(=O)[O-])CC(=O)[O-])O[C@H]1n1ccc(=O)[nH]c1=O.[Gd+3] [LGd3]
Relaxivity retained after transmetallation [1]: 21% | y0 of fit y0+A×exp(−t/C1) of proton relaxation rate during transmetallation [1]: 0.21 | Relaxivity r1 ([2]; 20 MHz (0.47 T)): 30.3 mM⁻¹ s⁻¹ and 30.30 mM⁻¹ s⁻¹ | Relaxivity r1 ([2]; 60 MHz (1.41 T)): 23.4 mM⁻¹ s⁻¹ and 23.40 mM⁻¹ s⁻¹ | Relaxivity increase compared to Magnevist/Omniscan (Gd-DTPA, Gd-DTPA-BMA) ([2]; PBS, 0.47 T and 1.41 T): 6 fold | Critical micelle concentration (CMC) ([6]; 20 MHz, 36° C.): about 0.05 mM | Critical micelle concentration (CMC) [6]: 50 µM | Duration of hyperintense CNR in liver (delayed hepatobiliary phase) ([7]; 0.1 mmol Gd/kg i.v.): at least 11 h | Time of bright contrast enhancement in gall bladder after injection ([7]; 0.1 mmol Gd/kg i.v., 2D MR images): 2 to 4 h | Peak and plateau enhancement in liver parenchyma ([7]; 0.1 mmol Gd/kg i.v., CNR in liver from 1.67 to 4.0): about 240% | Liver parenchyma enhancement versus same dose of Gd-DTPA-BMA ([7]; 0.1 mmol Gd/kg, 3D dynamic images): more intense and prolonged enhancement | CNR in liver at 11 h above pre-value ([7]; 0.1 mmol Gd/kg, 11 h after injection): about 60% | T1-contrasted enhancement in liver parenchyma, caudal vena cava and kidney ([7]; 30 min after injection, 0.1 mmol Gd/kg): markedly seen | SI in liver compared with pre-injection value ([7]; 9 h after injection): still relatively high | Duration of plateau-like constant CNR in liver ([7]; after maximum at about 2 h post-injection): about 2 h | Peak CNR in liver ([7]; i.v. injection, 4.7 T): 4.0 | Effective interaction with HSA (R1/R1^0) ([3]; 20 MHz): high | Relaxivity r1^a (with HSA) ([3]; 20 MHz (0.47 T)): 41.0 mM⁻¹ s⁻¹ and 41.00 mM⁻¹ s⁻¹ | Relaxivity of adduct with HSA (r1^c) ([3]; adduct LGd3.HSA, 20 MHz (0.47 T), PBS): 41.0 mM⁻¹ s⁻¹ | Relaxivity of the non-aggregate form (r1^f) ([3]; below CMC, 20 MHz (0.47 T), PBS): 18.5 mM⁻¹ s⁻¹ | Binding constant (Ka) with HSA ([3]; non-covalent binding, theoretical equation, 20 MHz, PBS): (3.34±0.28)×10^3 M^−1 | Relaxivity variation Δr1 between pH 6 and 7.5 ([4]; 60 MHz, 36° C.): ~2.9 | Relaxivity variation Δr1 from pH 8 to pH 11 ([4]; 60 MHz, 36° C.): ~10.3 | Relaxivity at pH 8 ([4]; pH 8, 60 MHz (1.41 T), 36° C.): about 24.5 mM^−1s^−1 | Relaxivity at pH 10.5 ([4]; pH 10.5): about 17.3 mM^−1s^−1 | Relaxivity at pH 11 ([4]; pH 11, 60 MHz (1.41 T), 36° C.): 14.2 mM^−1s^−1 | Average diameter (FIG. 7) as printed in nm ([5]; FIG. 7): 51.2 nm | DLS PDI of micelles at alkaline pH ([5]; FIG. 12, pH 10.5): 2.01 | DLS PDI of micelles [5]: 1.46 | DLS average size of micelles [5]: 51.16 nm and 51.15 nm

CCCCCCCCCCCC(=O)O[C@@H]1[C@H](OC(=O)CCCCCCCCCCC)[C@@H](CN(CCN(CC(=O)[O-])CC(=O)[O-])CCN(CC(=O)[O-])CC(=O)[O-])O[C@H]1n1ccc(=O)[nH]c1=O.[Gd+3] [LGd4]
Relaxivity retained after transmetallation [1]: 12% | y0 of fit y0+A×exp(−t/C1) of proton relaxation rate during transmetallation [1]: 0.12 | Relaxivity r1 ([2]; 20 MHz (0.47 T)): 27.10 mM⁻¹ s⁻¹ | Relaxivity r1 ([2]; 60 MHz (1.41 T)): 16.50 mM⁻¹ s⁻¹ | Relaxivity r1^a (with HSA) ([3]; 20 MHz (0.47 T)): 38.50 mM⁻¹ s⁻¹ | DLS PDI of micelles [5]: 1.12 | DLS average size of micelles [5]: 50.16 nm

CCCCCCCCCCCCCC(=O)O[C@@H]1[C@H](OC(=O)CCCCCCCCCCCCC)[C@@H](CN(CCN(CC(=O)[O-])CC(=O)[O-])CCN(CC(=O)[O-])CC(=O)[O-])O[C@H]1n1ccc(=O)[nH]c1=O.[Gd+3] [LGd5]
Relaxivity r1 ([2]; 20 MHz (0.47 T)): 20.10 mM⁻¹ s⁻¹ | Relaxivity r1 ([2]; 60 MHz (1.41 T)): 17.20 mM⁻¹ s⁻¹ | Relaxivity r1^a (with HSA) ([3]; 20 MHz (0.47 T)): 26.40 mM⁻¹ s⁻¹ | DLS PDI of micelles [5]: 1.14 | DLS average size of micelles [5]: 24.74 nm

CNC[C@H](O)[C@@H](O)[C@H](O)[C@H](O)CO.CNC[C@H](O)[C@@H](O)[C@H](O)[C@H](O)CO.O=C([O-])CN(CCN(CC(=O)[O-])CC(=O)O)CCN(CC(=O)[O-])CC(=O)O.[Gd+3] [Magnevist ®, Gd-DTPA, reference compound]
Relaxivity r1 ([2]; 20 MHz (0.47 T)): 4.70 mM⁻¹ s⁻¹ | Relaxivity r1 ([2]; 60 MHz (1.41 T)): 3.81 mM⁻¹ s⁻¹ | Relaxivity retained after transmetallation (commercial contrast agents) [8]: 50%

CNC[C@H](O)[C@@H](O)[C@H](O)[C@H](O)CO.CNC[C@H](O)[C@@H](O)[C@H](O)[C@H](O)CO.O=C([O-])CN(CCN(CC(=O)[O-])CC(=O)O)CCN(CC(=O)O)C(COCc1ccccc1)C(=O)[O-].[Gd+3] (stereo not drawn) [Multihance®, Gd-BOPTA]
Hepatic excretion [9]: 4% | Renal excretion [9]: 96%

CCOc1ccc(CC(CN(CCN(CC(=O)[O-])CC(=O)[O-])CC(=O)[O-])N(CC(=O)[O-])CC(=O)[O-])cc1.[Gd+3].[Na+].[Na+] (stereo not drawn) [Primovist®, Gd-EOB-DTPA]
Hepatic excretion [9]: 50% | Renal excretion [9]: 50%

O=C([O-])CN(CCN(CC(=O)[O-])CC(COP(=O)([O-])OC1CCC(c2ccccc2)(c2ccccc2)CC1)N(CC(=O)[O-])CC(=O)[O-])CC(=O)[O-].[Gd+3].[Na+].[Na+].[Na+] (stereo not drawn) [Vasovist®, diphenylcyclohexyl phosphodiester-Gd-DTPA]
Hepatic excretion [9]: 8% | Renal excretion [9]: 91%
